Assay results taken from patent publication US12391647B2, “Benzamide compound and preparation method, use, and pharmaceutical composition thereof” (INSTITUTE OF MATERIA MEDICA, CHINESE ACADEMY OF MEDICAL …, priority 2018, dated 2025).
Marks after values point to notes of the source that are not given here.

What was measured:
[1] = system: human prostate cancer cell DU145; experiment: MTT assay, survival rate of tumor cells (antiproliferative activity); assay type: cell-based; settings: DU-145, 72 h, read-out: Antiproliferative activity against human prostate cancer cell DU145, IC50
Experimental: DU145 cells (human prostate cancer cells) in logarithmic growth phase were digested with 0.25% trypsin-EDTA to prepare single cell suspension, which was inoculated into 96-well plate overnight according to 1500 cells/well/100 μL, and fresh medium containing different concentrations of compounds to be tested and corresponding solvent control was added, and 100 μL (DMSO final concentration <0.1%) was added to each well, and the 96-well plate was further cultured at 37° C. for 72 h. 20 μL of freshly prepared PBS solution containing 5 mg/mL MTT was added to each well, and the 96-well plate was further cultured for 4 h. After the supernatant was discarded, 180 μL of DMSO was added to each well to dissolve the MTT formazan precipitate. After the 96-well plate was shaked and mixed by a micro oscillator, the optical density (OD) at the detection wavelength of 570 nm was measured. With DMSO-treated tumor cells as the control group, the inhibition rate on the growth of tumor cells of the compound to be tested was calculated from the following formula, and the IC50 was calculated according to the median-effect equation. Inhibition rate (%)=(average OD value of control group-average OD value of dosing group)/average OD value of control group×100%

[2] = system: STAT3 transcription; experiment: STAT3 specific luciferase double reporter gene experiment in DU145 cells; assay type: cell-based, human; settings: for STAT3 transcription inhibition activity: DU145, STAT3 specific luciferase double reporter; for IC50: Homo sapiens, DU-145, DU145 with high STAT3 expression, 24 h
Experimental: The luciferase plasmids STAT3-TA-Luc and pGMLR-TK were transiently co-transfected into DU145 cells by Lipofectamine 3000. After staying overnight, different concentrations of compounds to be tested were added and cultured for 24 hours. The supernatant was discarded, and the residue was washed twice with PBS, and then 20 μL of lysis solution was added to shake and lyse for 5 min. The supernatant was transferred to a 96-well Costar whiteplate, and 70 μL of Dual-Glo luciferase substrate solution was added, and the relative fluorescence intensity of firefly luciferase was detected, and then 70 μL of Stop-Glo substrate solution was added, and the relative fluorescence intensity of sea kidney luciferase was detected, the normalized value was obtained, and the inhibition rate and IC50 value were calculated.

[3] = system: p-STAT3 (Tyr705); experiment: Western blotting of p-STAT3 expression in DU145 cells; assay type: cell-based, human
Experimental: DU145 cells treated for 16 h with different concentrations of examples 12, 23, 33 and 34 and DU145 cells in control group were collected and washed twice with pre-cooled PBS. After appropriate amount of RIPA lysate (50 mM Tris-HCl, 1 mM EDTA, 1% Triton X-100, 150 mM NaCl, 0.1% SDS, 1 mM NaF, Na3VO4, protease inhibitor, pH 7.4) was added to lyse for 1 h on ice, the reaction mixture was centrifuged at 4° C., 12,000 rpm for 20 min, and then the supernatant was collected for protein quantification and boiled for denaturation. Equal amount of protein was taken for 10% SDS-PAGE electrophoresis. The specific antibodies of p-STAT3 (Tyr705) and STAT3 were used as primary antibody, which was incubated overnight at 4° C. The corresponding HRP-labeled secondary antibody was used, incubated at room temperature for 2 h, and washed. ECL chemiluminescence substrate reaction solution was added to develop in gel imaging system, and the image was saved. (3-actin was used as internal reference.

[4] = system: xenograft tumor of human prostate cancer DU145; experiment: Xenotransplantation efficacy study in nude mice; assay type: in vivo; settings: for Tumor growth inhibition: oral, DU145 xenograft; for inhibitory effect on the growth of xenograft tumor: subcutaneous DU145 xenograft
Experimental: Tumor cells of human prostate cancer DU145 were collected under aseptic conditions, and the cell density was adjusted to 1×10^6 cells/mL with sterilized normal saline, and then 0.2 mL of which was inoculated subcutaneously in the axillary back of nude mice. When the tumor grew to 1 cm in diameter, it was taken out under aseptic conditions, cut into tumor blocks with the size of 1 mm×1 mm, and inoculated subcutaneously in the axillary back of nude mice. Two weeks later, after the tumor grew to 100˜300 mm^3, the animals were randomly divided into groups and began to be administered (recorded as day 0). The compound to be tested is administered orally. The animals were weighed twice a week and the length and width of tumor were measured with vernier caliper. After the experiment, the nude mice were dislocated and killed, and the tumor tissues were stripped, weighed and photographed. Finally, the tumor inhibition rate was calculated, and the anti-tumor effect was evaluated by the tumor inhibition rate. The results are shown in tables 3 and 4 and FIGS. 2 and 3.
The tumor volume is calculated according to the following formula:
Tumor volume=(a×b^2)/2, where a and b represent the length and width of tumor respectively.
The tumor growth inhibition percentage is calculated according to the following formula: tumor growth inhibition (%)=(1−T/C)×100, T is the tumor volume of group of the compound to be tested, and C is the tumor volume of the solvent control group.

IC50 [2] [nM]	Compound	IC50 [1] [nM]	STAT3 transcription inhibition activity [2]	inhibitory activity on STAT3 phosphorylation ([3]; DU145, 1 μM concentration)	Tumor growth inhibition ([4]; 10 mg/kg × 7 times)	Tumor growth inhibition ([4]; 20 mg/kg × 7 times)	Tumor growth inhibition ([4]; 40 mg/kg × 7 times)	inhibitory effect on the growth of xenograft tumor [4]	inhibitory activity on STAT3 phosphorylation ([3]; DU145, 0.1 μM concentration)	Tumor growth inhibition ([4]; 20 mg/kg × 6 times)	Tumor growth inhibition ([4]; 40 mg/kg × 5 times)	inhibitory activity on STAT3 phosphorylation ([3]; DU145, 0.5 μM concentration)	Tumor growth inhibition ([4]; 20 mg/kg × 14 times) [%]	Tumor growth inhibition ([4]; 40 mg/kg × 11 times)
7000 ± 1300	Cc1ccc(S(=O)(=O)Nc2cc(C(=O)NCc3cccnc3)ccc2C)cc1 [Example 1, 4-methyl-3-((4-methylphenyl)sulfonamido)-N-(pyridin-3-ylmethyl) benzamide]	120 ± 30	obvious STAT3 transcription inhibition activity	obvious inhibitory activity	58.8*** %	62.7*** %	73.5*** %	significant inhibitory effects						
500 ± 120	Cc1ccc(S(=O)(=O)Nc2cc(C(=O)NCc3ccc(C)nc3)ccc2C)cc1 [Example 33, 4-methyl-3-((4-methylphenyl)sulfonamido)-N-((6-methylpyridin-3-yl)methyl)benzamide]	8 ± 1	obvious STAT3 transcription inhibition activity					significant inhibitory effects	obvious inhibitory activity	63.0** %	80.0** %			
1000	CCc1ccc(S(=O)(=O)Nc2cc(C(=O)NCc3cccnc3)ccc2C)cc1 [Example 12, 3-((4-ethylphenyl)sulfonamido)-4-methyl-N-(pyridin-3-ylmethyl)benzamide]	40 ± 10	obvious STAT3 transcription inhibition activity					significant inhibitory effects				obvious inhibitory activity	40.4	79.7*** %
